The source of these data is US5597899A, “Tumor necrosis factor muteins” (Hoffmann-La Roche Inc., priority 1993, dated 1997).

Assay [1] relates to human TNFR-p55. The assay can be described thus: Solid phase radioligand competition binding assay, E. coli lysates, TNFR-p55. The conditions noted are these: for Dilution of E. coli Lysate for 50% Inhibition of 125I-TNFα Binding (ID50) TNFR-p55: 10-fold serial dilutions 10^-2 to 10^-7, < = inhibition but below 50% at 1:100, << = no measurable inhibition at 1:100; for ID50 TNFR-p55 / ID50 TNFR-p75: ratio = 1 no receptor selectivity, > 1 TNFR-p55 selectivity, < 1 TNFR-p75 selectivity. As for the experimental part: (§1) After 20 min incubation at room temperature 50 μl of 1M MgCl2, 20 μl of 5 mg/ml DNaseI, 50 μl of 5M NaCl and 50 μl of 10% NP-40 were added and the mixture was further incubated at room temperature for 15 min. 0.5 ml of the lysate clarified by centrifugation at 13'000 rpm for 5 min was subjected to ammonium sulfate precipitation (25%-70% cut). The 70% ammonium sulfat pellet was dissolved in 0.2 ml PBS and analyzed by sodium dodecyl sulfate polyacrylamide gel electrophoresis (SDS-PAGE) to confirm presence and approximate amount of the recombinant proteins.
TNFα was labelled by the Iodogen method (Pierce Chemical Company) to a specific activity of about 10-30 μCi/μg. The volume was 100 μl/well and each lysate dilution was assayed in duplicate or triplicate. After three hours at room temperature the wells were thoroughly washed with PBS and counted in a γ-counter. The results are given in Table 2 for lysates comprising the muteins indicated therein.

For assay [2], the system named is human TNFR-p75. The assay can be described thus: Solid phase radioligand competition binding assay, E. coli lysates, TNFR-p75. The following applies: 10-fold serial dilutions 10^-2 to 10^-7, < = inhibition but below 50% at 1:100, << = no measurable inhibition at 1:100. The procedure: as §1, with “10 ml suspensions of E. coli cells transformed and induced as described in Examples I and II were centrifuged at 4'000 rpm for 10 min and resuspended in 0.9 ml of lysis buffer (10 mM Tris-HCl pH 8.0, 5 mM EDTA, 2 mM PMSF, 10 mM benzamidine, 200 units/ml aprotinine and 0.1 mg/ml lysozyme). After” for “After”
96 well microtiter plates were coated with recombinant human […] TNFR-p75-hγ3 and TNFR-p55-hγ3 fusion proteins (extracellular portion of the receptor fused to the Fc part of human IgG3) at a concentration of 0.3 μg/ml and 0.1 μg/ml, respectively, in phosphate buffered saline (PBS, 100 μl/well, overnight at 4° C.) [Loetscher, H. et al. J. Biol. Chem. 266, 18324-18329 (1991); Lesslauer, W. et al. Eur. J. Immunol. 21, 2883-2886 (1991)]. After blocking with blocking buffer (50 mM Tris pH 7.4, 140 mM NaCl, 5 mM EDTA, 0.02% NAN3, 1% defatted milk powder) the microtiter plate was washed with PBS and incubated in blocking buffer containing 0.1% defatted milk powder with 10 ng/ml human wild-type ^125 I-TNFα and various dilutions of E. coli lysates ranging from 10^-2 to 10^-7 (10-fold serial dilutions). TNFα was labelled by the Iodogen method (Pierce Chemical Company) to a specific activity of about 10-30 μCi/μg. The volume was 100 μl/well and each lysate dilution was assayed in duplicate or triplicate. After three hours at room temperature the wells were thoroughly washed with PBS and counted in a γ-counter. The results are given in Table 2 for lysates comprising the muteins indicated therein.
Background: Displacement assays read how much labelled ligand stays bound in the presence of the test substance.

Regarding L75H: human TNFα mutein L75H, in assay [1], the “Dilution of E. coli Lysate for 50% Inhibition of 125I-TNFα Binding (ID50) TNFR-p55” value is recorded as 1,670 fold and the “ID50 TNFR-p55 / ID50 TNFR-p75” value was 0.7. The “Dilution of E. coli Lysate for 50% Inhibition of 125I-TNFα Binding (ID50) TNFR-p75” value in assay [2] is listed as 2,500 fold.
For L75R: human TNFα mutein L75R, in assay [1], the “Dilution of E. coli Lysate for 50% Inhibition of 125I-TNFα Binding (ID50) TNFR-p55” value was under 100 fold and the “ID50 TNFR-p55 / ID50 TNFR-p75” value amounted to 1. Besides, in assay [2], the “Dilution of E. coli Lysate for 50% Inhibition of 125I-TNFα Binding (ID50) TNFR-p75” value is recorded as under 100 fold.
Take L75W: human TNFα mutein L75W: in assay [1], the “Dilution of E. coli Lysate for 50% Inhibition of 125I-TNFα Binding (ID50) TNFR-p55” value was 220 fold and the “ID50 TNFR-p55 / ID50 TNFR-p75” value is on record as 0.7. The “Dilution of E. coli Lysate for 50% Inhibition of 125I-TNFα Binding (ID50) TNFR-p75” value in assay [2] was 330 fold.
As for N19D: human TNFα mutein N19D, in assay [1], the “Dilution of E. coli Lysate for 50% Inhibition of 125I-TNFα Binding (ID50) TNFR-p55” value is given as 5,000 fold and the “ID50 TNFR-p55 / ID50 TNFR-p75” value came to 1. Further, the “Dilution of E. coli Lysate for 50% Inhibition of 125I-TNFα Binding (ID50) TNFR-p75” value in assay [2] is 5,000 fold.
With N30T: human TNFα mutein N30T, in assay [1], the “Dilution of E. coli Lysate for 50% Inhibition of 125I-TNFα Binding (ID50) TNFR-p55” value was 2,860 fold and the “ID50 TNFR-p55 / ID50 TNFR-p75” value came to 1.1. The “Dilution of E. coli Lysate for 50% Inhibition of 125I-TNFα Binding (ID50) TNFR-p75” value in assay [2] is recorded as 2,500 fold.
In the case of N34C: human TNFα mutein N34C, in assay [1], the “Dilution of E. coli Lysate for 50% Inhibition of 125I-TNFα Binding (ID50) TNFR-p55” value was 250 fold and the “ID50 TNFR-p55 / ID50 TNFR-p75” value was over 2.5. The “Dilution of E. coli Lysate for 50% Inhibition of 125I-TNFα Binding (ID50) TNFR-p75” value in assay [2] is on record as under 100 fold.
For N34D: human TNFα mutein N34D the same measures were 250 fold, over 2.5 and under 100 fold.
For N34E: human TNFα mutein N34E the same measures were 330 fold, over 3.3 and under 100 fold.
Turning to N34F: human TNFα mutein N34F, in assay [1], the “Dilution of E. coli Lysate for 50% Inhibition of 125I-TNFα Binding (ID50) TNFR-p55” value was found to be 100 fold and the “ID50 TNFR-p55 / ID50 TNFR-p75” value is over 1. Also, the “Dilution of E. coli Lysate for 50% Inhibition of 125I-TNFα Binding (ID50) TNFR-p75” value in assay [2] is under 100 fold.
Consider N34G: human TNFα mutein N34G, for which, in assay [1], the “Dilution of E. coli Lysate for 50% Inhibition of 125I-TNFα Binding (ID50) TNFR-p55” value turned out to be 330 fold and the “ID50 TNFR-p55 / ID50 TNFR-p75” value was over 3.3. The “Dilution of E. coli Lysate for 50% Inhibition of 125I-TNFα Binding (ID50) TNFR-p75” value in assay [2] is given as under 100 fold.
N34H: human TNFα mutein N34H: in assay [1], the “Dilution of E. coli Lysate for 50% Inhibition of 125I-TNFα Binding (ID50) TNFR-p55” value came to 670 fold and the “ID50 TNFR-p55 / ID50 TNFR-p75” value was over 6.7. For the same substance, the “Dilution of E. coli Lysate for 50% Inhibition of 125I-TNFα Binding (ID50) TNFR-p75” value in assay [2] is under 100 fold.
Turning to N34I: human TNFα mutein N34I, in assay [1], the “Dilution of E. coli Lysate for 50% Inhibition of 125I-TNFα Binding (ID50) TNFR-p55” value is on record as 200 fold and the “ID50 TNFR-p55 / ID50 TNFR-p75” value is given as over 2. Besides, in assay [2], the “Dilution of E. coli Lysate for 50% Inhibition of 125I-TNFα Binding (ID50) TNFR-p75” value is on record as under 100 fold.
With N34M: human TNFα mutein N34M, in assay [1], the “Dilution of E. coli Lysate for 50% Inhibition of 125I-TNFα Binding (ID50) TNFR-p55” value is given as under 100 fold and the “ID50 TNFR-p55 / ID50 TNFR-p75” value is over 1. In assay [2], the “Dilution of E. coli Lysate for 50% Inhibition of 125I-TNFα Binding (ID50) TNFR-p75” value is listed as under 100 fold.
Regarding N34P: human TNFα mutein N34P, in assay [1], the “Dilution of E. coli Lysate for 50% Inhibition of 125I-TNFα Binding (ID50) TNFR-p55” value is recorded as under 100 fold and the “ID50 TNFR-p55 / ID50 TNFR-p75” value is listed as over 1. For the same substance, the “Dilution of E. coli Lysate for 50% Inhibition of 125I-TNFα Binding (ID50) TNFR-p75” value in assay [2] is listed as under 100 fold.
For the substance N34Q: human TNFα mutein N34Q, in assay [1], the “Dilution of E. coli Lysate for 50% Inhibition of 125I-TNFα Binding (ID50) TNFR-p55” value is reported as under 100 fold and the “ID50 TNFR-p55 / ID50 TNFR-p75” value was over 1. Further, in assay [2], the “Dilution of E. coli Lysate for 50% Inhibition of 125I-TNFα Binding (ID50) TNFR-p75” value is listed as under 100 fold.
